In patent publication US20250032651A1, “[177LU] LUTETIUM-PSMA I&T COMPOSITION AND DOSIMETRY, KIT, METHOD OF MAKING, AND METHOD OF USING THEREOF” (Curium US LLC, priority 2022, published 2025):

Experiment: Cycle 3 dosimetry (TACs of cycle 1 scaled to cycle 3 time points)
Type: in vivo, human
Conditions: for Absorbed Dose in Cycle 3, Mean / Absorbed Dose in Cycle 3, max / Absorbed Dose in Cycle 3, min: N = 16
Procedure: (§1) To evaluate potential changes in the tracer's kinetics and uptake after multiple treatment cycles, 16 of the 27 patients included in the dosimetry sub study, were imaged at both cycle 1 and cycle 3. Among these, at cycle 3, three patients were imaged at all 4 timepoints and the other 13 were imaged at one or two timepoints only (24 h, 48 h or both 24 h and 48 h) (Table 2). For these 13 patients, the TACs obtained at cycle 1 were used for each source organ and scaled to the normalized activity value(s) measured at Cycle 3. For patients imaged at two timepoints, the TACs were preferably scaled using the average scaling factor between the two timepoints.
A subgroup of 16 out of the 27 patients underwent and additional dosimetry assessment at Cycle 3. Among these, three patients had dosimetry performed based on images taken at 4 timepoints, while the remaining patients had dosimetry performed at 1 or 2 imaging timepoints only.
as §1, with “7 in Appendix 1).” for “2).”

[1] = Lacrimal Glands (OLINDA sphere model)
[2] = Lacrimal Glands, OLINDA sphere model

O=C([O-])CC[C@H](NC(=O)N[C@@H](CCCCNC(=O)CCCCCCC(=O)NCCCC[C@@H](NC(=O)[C@@H](Cc1ccccc1)NC(=O)[C@@H](Cc1ccc(O)c(I)c1)NC(=O)CC[C@H](C(=O)[O-])N1CCN(CC(=O)[O-])CCN(CC(=O)[O-])CCN(CC(=O)[O-])CC1)C(=O)[O-])C(=O)[O-])C(=O)[O-].[177Lu+3].[H+].[H+].[H+].[H+].[H+] [^177Lu-PSMA I&T, (3S,7S,26R,29R,32R,37R)-29-benzyl-32-(4-hydroxy-3-iodobenzyl)-5,13,20,28,31,34-hexaoxo-37-(4,7,10-tris(carboxymethyl)-1,4,7,10-tetraazacyclododecan-1-yl)-4,6,12,21,27,30,33-heptaazaheptatriacontane-1,3,7,26,37-pentacarboxylic acid; lutetium-177 (III)]
Absorbed Dose in Cycle 3, Mean (Adrenals): 0.02 Gy/GBq | Absorbed Dose in Cycle 3, max (Adrenals): 0.03 Gy/GBq | Absorbed Dose in Cycle 3, min (Adrenals): 0.01 Gy/GBq | Absorbed Dose in Cycle 3, Mean (Brain): 0.01 Gy/GBq | Absorbed Dose in Cycle 3, max (Brain): 0.02 Gy/GBq | Absorbed Dose in Cycle 3, min (Brain): 0.00 Gy/GBq | absorbed radiation dose, kidneys (mean ± SD) (Cycle 3, 16 patients imaged at cycle 1 and 3): 0.49±0.19 Gy/GBq | Absorbed Dose in Cycle 3, Mean (Esophagus): 0.01 Gy/GBq | Absorbed Dose in Cycle 3, max (Esophagus): 0.02 Gy/GBq | Absorbed Dose in Cycle 3, min (Esophagus): 0.00 Gy/GBq | Absorbed Dose in Cycle 3, Mean (Eyes): 0.01 Gy/GBq | Absorbed Dose in Cycle 3, max (Eyes): 0.02 Gy/GBq | Absorbed Dose in Cycle 3, min (Eyes): 0.00 Gy/GBq | Absorbed Dose in Cycle 3, Mean (Gallbladder wall): 0.01 Gy/GBq | Absorbed Dose in Cycle 3, max (Gallbladder wall): 0.02 Gy/GBq | Absorbed Dose in Cycle 3, min (Gallbladder wall): 0.00 Gy/GBq | Absorbed Dose in Cycle 3, Mean (Heart wall): 0.01 Gy/GBq | Absorbed Dose in Cycle 3, max (Heart wall): 0.02 Gy/GBq | Absorbed Dose in Cycle 3, min (Heart wall): 0.00 Gy/GBq | Absorbed Dose in Cycle 3, Mean (Kidneys): 0.49 Gy/GBq | Absorbed Dose in Cycle 3, max (Kidneys): 0.85 Gy/GBq | Absorbed Dose in Cycle 3, min (Kidneys): 0.19 Gy/GBq | Absorbed Dose in Cycle 3, Mean [1]: 0.29 Gy/GBq | Absorbed Dose in Cycle 3, max [1]: 0.73 Gy/GBq | Absorbed Dose in Cycle 3, min [1]: 0.10 Gy/GBq | Absorbed Dose in Cycle 3, Mean [2]: 0.29 Gy/GBq | Absorbed Dose in Cycle 3, max [2]: 0.73 Gy/GBq | Absorbed Dose in Cycle 3, min [2]: 0.10 Gy/GBq | Absorbed Dose in Cycle 3, Mean (Left colon): 0.41 Gy/GBq | Absorbed Dose in Cycle 3, max (Left colon): 0.94 Gy/GBq | Absorbed Dose in Cycle 3, min (Left colon): 0.07 Gy/GBq | Absorbed Dose in Cycle 3, Mean (Liver): 0.06 Gy/GBq | Absorbed Dose in Cycle 3, max (Liver): 0.15 Gy/GBq | Absorbed Dose in Cycle 3, min (Liver): 0.00 Gy/GBq | Absorbed Dose in Cycle 3, Mean (Lungs): 0.01 Gy/GBq | Absorbed Dose in Cycle 3, max (Lungs): 0.02 Gy/GBq | Absorbed Dose in Cycle 3, min (Lungs): 0.00 Gy/GBq | Absorbed Dose in Cycle 3, Mean (Osteogenic cells): 0.02 Gy/GBq | Absorbed Dose in Cycle 3, max (Osteogenic cells): 0.09 Gy/GBq | Absorbed Dose in Cycle 3, min (Osteogenic cells): 0.00 Gy/GBq | Absorbed Dose in Cycle 3, Mean (Pancreas): 0.01 Gy/GBq | Absorbed Dose in Cycle 3, max (Pancreas): 0.02 Gy/GBq | Absorbed Dose in Cycle 3, min (Pancreas): 0.00 Gy/GBq | Absorbed Dose in Cycle 3, Mean (Prostate): 0.01 Gy/GBq | Absorbed Dose in Cycle 3, max (Prostate): 0.02 Gy/GBq | Absorbed Dose in Cycle 3, min (Prostate): 0.01 Gy/GBq | Absorbed Dose in Cycle 3, Mean (Rectum): 0.39 Gy/GBq | Absorbed Dose in Cycle 3, max (Rectum): 0.90 Gy/GBq | Absorbed Dose in Cycle 3, min (Rectum): 0.06 Gy/GBq | Absorbed Dose in Cycle 3, Mean (Red Marrow): 0.03 Gy/GBq | Absorbed Dose in Cycle 3, max (Red Marrow): 0.17 Gy/GBq | Absorbed Dose in Cycle 3, min (Red Marrow): 0.00 Gy/GBq | Absorbed Dose in Cycle 3, Mean (Right Colon): 0.22 Gy/GBq | Absorbed Dose in Cycle 3, max (Right Colon): 0.51 Gy/GBq | Absorbed Dose in Cycle 3, min (Right Colon): 0.04 Gy/GBq | Absorbed Dose in Cycle 3, Mean (Salivary Glands): 0.20 Gy/GBq | Absorbed Dose in Cycle 3, max (Salivary Glands): 0.69 Gy/GBq | Absorbed Dose in Cycle 3, min (Salivary Glands): 0.04 Gy/GBq | Absorbed Dose in Cycle 3, Mean (Small intestine): 0.04 Gy/GBq | Absorbed Dose in Cycle 3, max (Small intestine): 0.10 Gy/GBq | Absorbed Dose in Cycle 3, min (Small intestine): 0.01 Gy/GBq | Absorbed Dose in Cycle 3, Mean (Spleen): 0.03 Gy/GBq | Absorbed Dose in Cycle 3, max (Spleen): 0.12 Gy/GBq | Absorbed Dose in Cycle 3, min (Spleen): 0.01 Gy/GBq | Absorbed Dose in Cycle 3, Mean (Stomach Wall): 0.01 Gy/GBq | Absorbed Dose in Cycle 3, max (Stomach Wall): 0.02 Gy/GBq | Absorbed Dose in Cycle 3, min (Stomach Wall): 0.00 Gy/GBq | Absorbed Dose in Cycle 3, Mean (Testes): 0.01 Gy/GBq | Absorbed Dose in Cycle 3, max (Testes): 0.02 Gy/GBq | Absorbed Dose in Cycle 3, min (Testes): 0.00 Gy/GBq | Absorbed Dose in Cycle 3, Mean (Thymus): 0.01 Gy/GBq | Absorbed Dose in Cycle 3, max (Thymus): 0.02 Gy/GBq | Absorbed Dose in Cycle 3, min (Thymus): 0.00 Gy/GBq | Absorbed Dose in Cycle 3, Mean (Thyroid): 0.01 Gy/GBq | Absorbed Dose in Cycle 3, max (Thyroid): 0.02 Gy/GBq | Absorbed Dose in Cycle 3, min (Thyroid): 0.00 Gy/GBq | Absorbed Dose in Cycle 3, Mean (Total Body): 0.02 Gy/GBq | Absorbed Dose in Cycle 3, max (Total Body): 0.03 Gy/GBq | Absorbed Dose in Cycle 3, min (Total Body): 0.01 Gy/GBq | Absorbed Dose in Cycle 3, Mean (Urinary Bladder wall): 0.45 Gy/GBq | Absorbed Dose in Cycle 3, max (Urinary Bladder wall): 0.70 Gy/GBq | Absorbed Dose in Cycle 3, min (Urinary Bladder wall): 0.36 Gy/GBq
